Data published in patent US20010049450A1 (priority 2000, published 2001).
Structures can show the parent of a compound that is named as a salt.

Assays:
[1] = Crystal particle size distribution and average particle size (SHIMADZU SALD1100, medium diisopropyl ether); format: physicochemical; conditions: for average particle size: average diameter upon conversion of particle volume into sphere; for average particle size / crystal particle size distribution: not less than 10 μm and less than 20 μm / crystal particle size distribution: not less than 20 μm and less than 40 μm / crystal particle size distribution: less than 5 μm / crystal particle size distribution: not less than 40 μm: hydrobromide; for crystal particle size distribution: not less than 10 μm and less than 20 μm: fraction of crystals with 10 μm ≦ D < 20 μm; for crystal particle size distribution: not less than 20 μm and less than 40 μm: fraction of crystals with 20 μm ≦ D < 40 μm; for crystal particle size distribution: less than 5 μm: fraction of crystals with D < 5 μm; for crystal particle size distribution: not less than 40 μm: fraction of crystals with D ≧ 40 μm
Procedure: The average particle size in the present invention is an average diameter upon conversion of the volume of the crystal particles into sphere. The powder X-ray crystal diffraction and average particle size were measured in the following Reference Example, Examples and Comparative Example, according to the following methods. Average particle size: SHIMADZU CORPORATION SALD1100 (medium:diisopropyl ether)

[2] = Bulk density and tap density of crystals; format: physicochemical

Compound | average particle size [1] [μm] | crystal particle size distribution: not less than 10 μm and less than 20 μm [1] | crystal particle size distribution: not less than 20 μm and less than 40 μm [1] | crystal particle size distribution: less than 5 μm [1] | crystal particle size distribution: not less than 40 μm [1] | bulk density [2] [g/mL] | tap density [2] [g/mL] | fine crystals having a particle size of less than 5 μm (of the total amount) ([1]; crystallized according to the method of U.S. Pat. No. 4,650,884) [%]
CN(C)CCCC1(c2ccc(F)cc2)OCc2cc(C#N)ccc21 (single isomer, unassigned) [Example 4, citalopram hydrobromide] | 23.8 | 20.9% | 31.7% | 9.6% | 25.5% |  |  | 
CN(C)CCCC1(c2ccc(F)cc2)OCc2cc(C#N)ccc21 (centres unmarked) [Comparative Example 1, citalopram hydrobromide, reference compound] | 6.3 | 23.9% | 4.0% | 41.9% | 0% |  |  | 
CN(C)CCCC1(c2ccc(F)cc2)OCc2cc(C#N)ccc21 (centres unmarked) [Example 2, citalopram hydrobromide] | 7.8 | 25.7% | 12.2% | D < 5 μm 31.4% | D ≧ 40 μm 0.3% |  |  | 
CN(C)CCCC1(c2ccc(F)cc2)OCc2cc(C#N)ccc21 (centres unmarked) [citalopram hydrobromide, reference compound] |  |  |  |  |  |  |  | 41.9

The remaining lines, values ahead:

average particle size [1] [μm] | crystal particle size distribution: not less than 10 μm and less than 20 μm [1] | crystal particle size distribution: not less than 20 μm and less than 40 μm [1] | crystal particle size distribution: less than 5 μm [1] | crystal particle size distribution: not less than 40 μm [1] | bulk density [2] [g/mL] | tap density [2] [g/mL] | fine crystals having a particle size of less than 5 μm (of the total amount) ([1]; crystallized according to the method of U.S. Pat. No. 4,650,884) [%] | Compound
12.9 | 29.1% | 27.0% | 17.1% | 4.6% |  |  |  | CN(C)CCCC1(c2ccc(F)cc2)OCc2cc(C#N)ccc21 (single isomer, unassigned) [Example 1, citalopram hydrobromide]
14.6 | 35.5% | 29.3% | 12.6% | 2.4% | 0.2 | 0.42 |  | CN(C)CCCC1(c2ccc(F)cc2)OCc2cc(C#N)ccc21 (single isomer, unassigned) [Example 6, citalopram hydrobromide]
11.0 | 31.0% | 21.6% | D < 5 μm 19.6% | D ≧ 40 μm 1.6% |  |  |  | CN(C)CCCC1(c2ccc(F)cc2)OCc2cc(C#N)ccc21 (centres unmarked) [Example 3, citalopram hydrobromide]
15.1 | 10 μm ≦ D < 20 μm 26.9% | 20 μm ≦ D < 40 μm 31.0% | D < 5 μm 15.6% | D ≧ 40 μm 7.2% (shown |  |  |  | CN(C)CCCC1(c2ccc(F)cc2)OCc2cc(C#N)ccc21 (centres unmarked) [Example 5, citalopram hydrobromide]
